Assay results: patent publication US9921406B2, “Targeted dual-axes confocal imaging apparatus with vertical scanning capabilities” (THE REGENTS OF THE UNIVERSITY OF MICHIGAN, priority 2009, dated 2018)
Entries after “also recorded” stand apart in the source; their conditions may differ.

Key:
[1] = tested on: adenomas (dysplastic polyps) in the rectum; experiment: In vivo fluorescence endoscopy of topically applied peptide in CPC;APC mouse model of colon cancer; details: FITC-labeled peptide 10 μM, 1 ml topical, ~10 minute dwell, PBS rinse
From the text: This small animal endoscope (Karl Storz Veterinary Endoscopy, Goleta, Calif.) consists of a 9.5 Fr (3 mm) diameter rigid Hopkins II 0 deg telescope with a 11.5 cm working length and a 3 Fr (1 mm) diameter instrument channel for performing tissue biopsy. Fluorescence excitation is produced with a 450 to 475 nm passband filter that can be manually switched into the optical path of a 175 W Nova Xenon light source, and is delivered to the endoscope via a 3 mm diameter fluid light cable with 250 cm length. Fluorescence images are collected with 510 nm barrier filter to block the excitation light, and are detected with a 3-chip color camera with an integrated parfocal zoom lens. Real time video can be recorded via firewire connected to a personal computer.
The rectum of the mouse was first cleaned of stool and debris by performing tap water lavage, and then the distal end of the small animal endoscope was lubricated and inserted into the rectum of the mouse. Once adenomas were identified on white light, shown in FIG. 25A, a 1 ml solution of FITC-labeled peptide “VRPMPLQ” at a concentration of 10 μM was applied through the instrument channel with a syringe, and allowed to dwell for ˜10 minute, followed by gentle rinsing with PBS. […] The rectum was then rinsed vigorously with PBS. Complete removal of the peptide from the rectal mucosa was observed on fluorescence. […]

colonic adenoma = details: topical, cited from earlier work
CXCR4 = biological target: T1, CXCR4 (Homo sapiens, UniProt P61073); experiment: Luciferase complementation for recruitment of β-arrestin to CXCR4; format: cell-based
T1 construct: expressed in transfected cells
T1 sequence (P61073 whole entry, species assumed): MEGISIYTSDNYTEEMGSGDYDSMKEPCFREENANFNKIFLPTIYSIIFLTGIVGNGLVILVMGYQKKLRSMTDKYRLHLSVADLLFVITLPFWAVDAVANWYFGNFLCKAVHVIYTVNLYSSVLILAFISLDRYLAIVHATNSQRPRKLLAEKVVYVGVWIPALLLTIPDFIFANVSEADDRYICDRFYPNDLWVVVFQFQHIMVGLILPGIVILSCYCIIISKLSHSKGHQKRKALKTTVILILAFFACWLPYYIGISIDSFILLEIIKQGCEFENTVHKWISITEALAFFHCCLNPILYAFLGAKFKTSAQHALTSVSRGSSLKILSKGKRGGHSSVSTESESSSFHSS

CXCR7 = biological target: T2, CXCR7 (Homo sapiens, UniProt P25106); experiment: CXCR7/β-arrestin 2 firefly luciferase complementation assay for CXCR7 activation; format: cell-based
T2 construct: expressed in transfected cells; host or cells: reporter cells stably expressing the CXCR7/β-arrestin 2 PCA
T2 sequence (P25106 whole entry, species assumed): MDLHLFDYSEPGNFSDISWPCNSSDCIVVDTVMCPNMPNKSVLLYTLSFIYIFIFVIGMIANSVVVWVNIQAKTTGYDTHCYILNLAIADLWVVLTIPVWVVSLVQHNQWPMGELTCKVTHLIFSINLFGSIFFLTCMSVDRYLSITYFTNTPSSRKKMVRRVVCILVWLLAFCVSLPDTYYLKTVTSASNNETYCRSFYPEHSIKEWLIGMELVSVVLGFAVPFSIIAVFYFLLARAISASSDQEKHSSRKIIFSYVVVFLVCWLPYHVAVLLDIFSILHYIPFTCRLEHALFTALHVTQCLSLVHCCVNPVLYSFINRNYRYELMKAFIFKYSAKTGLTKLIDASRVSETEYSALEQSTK
T2 sequence (P32121 whole entry partner, species assumed): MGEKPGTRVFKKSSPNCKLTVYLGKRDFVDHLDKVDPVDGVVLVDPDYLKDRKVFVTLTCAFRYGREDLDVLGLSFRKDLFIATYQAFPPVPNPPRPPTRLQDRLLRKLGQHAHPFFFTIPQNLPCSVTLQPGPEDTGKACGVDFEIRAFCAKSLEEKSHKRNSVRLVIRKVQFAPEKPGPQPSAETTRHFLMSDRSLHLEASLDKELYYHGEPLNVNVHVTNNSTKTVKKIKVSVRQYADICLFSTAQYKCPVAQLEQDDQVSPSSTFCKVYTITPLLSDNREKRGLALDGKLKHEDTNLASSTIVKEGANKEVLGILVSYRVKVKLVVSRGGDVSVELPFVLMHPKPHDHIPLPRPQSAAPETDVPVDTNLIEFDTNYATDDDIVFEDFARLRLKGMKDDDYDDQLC
From the text: Binding of synthetic or natural ligands to 7-transmembrane receptors activates the receptor, resulting in receptor activation and recruitment of β-arrestin, a cytosolic adapter protein. The protein interaction between CXCR7 and β-arrestin 2 has been used to develop a protein fragment complementation assay for detecting activation of CXCR7. […] Ligand-dependent interaction of CXCR7 and β-arrestin 2 also brings together NLuc and CLuc fragments, which reconstitutes active firefly luciferase.
Ligands for CXCR7 activate the receptor, causing recruitment of β-arrestin. To determine to what extent the engineered knottin interacts with CXCR7, firefly luciferase complementation for CXCR7 activation was used as a reporter for binding of the peptide to the receptor. CXCR7/β-arrestin reporter cells were incubated with increasing concentrations of CXCR7-targeted knottin for 2 hours and then luciferase activity was quantified in living cells.

Q: With “VRPMPLQ [7mer peptide from phage display, conjugated to fluorescein using a hexanoic acid linker to the N-terminus]” as the substance, how does the “peptide binding to adenomas (fluorescence image)” value [1] read?
A: preferential peptide binding to the adenomas; also recorded: affinity binding

Q: What about the “peptide binding seen in fluorescence image, adenoma versus normal mucosa” value (colonic adenoma; 50 μm depth, FIG. 23B) of the same substance?
A: significant peptide binding to colonocytes surrounding dysplastic crypts (adenoma)

Q: What about the “average contrast ratio (adenoma:normal fluorescence intensity)” value (colonic adenoma; imaged at 50 μm depth, n=10 adenomas and adjacent normal mucosa) of the same substance?
A: 21±6

Q: Which “peptide binding to adenomas (fluorescence image)” value [1] does the source give for “QLMRPPV [FITC-labeled scrambled (control) peptide, reference compound]” here?
A: significantly less fluorescence intensity; also recorded: reduced binding

Q: Which “activation of CXCR4 (recruitment of β-arrestin)” value (CXCR4) does the source give for “GGCKPVSLSYRAPARFCKQDSDCLAGCVCGPNGFCGSA [CXCR7-targeted knottin]” here?
A: did not activate CXCR4

Q: And the “selectivity CXCR7 versus CXCR4” value (CXCR7; from luciferase complementation for both receptors)?
A: selectively interacts with CXCR7 and not CXCR4

Q: And the “activation of CXCR7 (bioluminescence)” value (CXCR7; reporter cells, living cells, knottin incubated 2 hours with increasing concentrations)?
A: increased bioluminescence; also recorded: dose-dependent activation of CXCR7
